Data: paper PMC5011342, “A high throughput drug screening assay to identify compounds that promote oligodendrocyte differentiation using acutely dissociated and purified oligodendrocyte precursor cells” (BMC Research Notes, 2016)
Where two headings read alike, the source gives them in different places.

Legend:
expanded OPCs = assay: cells; settings: for viability at 0.1 µM / viability at 1 µM / viability at 10 µM: Rattus norvegicus, 72 h
Summary of the method: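 Toxicity screen: compounds added at 0.1, 1 and 10 µM to PDGF-AA-expanded OPCs in 96-well plates, 3-day incubation at 37 °C, 10% CO2, then alamarBlue 1:10 for 4 h with fluorescence readout. Results set screening doses of 10/2, 2/0.4 or 0.4/0.08 µM.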

[1] = test system: acutely dissociated and purified rat OPCs; assay: Acute OL differentiation assay (MBP expression/cell, immunofluorescent image quantification); type: cell-based; settings: sheet "All OLga data"
Summary of the method: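 This acute differentiation assay used purified rat OPCs from postnatal day 6–7 pups, seeded into PDL/laminin-coated 96-well plates in differentiation medium lacking PDGF and FGF. Compounds were applied in quadruplicate after a 1–2 h preincubation at 37 °C, 10 % CO2, with 0.1 % DMSO negative and 40 ng/ml T3 positive controls in eight wells. After fixation on DIV4, anti-MBP immunofluorescence images yielded MBP expression/cell.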

[2] = read-out: 0.1 µM (% DMSO), alamarBlue viability of expanded OPCs, compound at 0.1 µM, sheet All Tox data
[3] = read-out: 1 µM (% DMSO), alamarBlue viability of expanded OPCs, compound at 1 µM, sheet All Tox data
[4] = read-out: 10 µM (% DMSO), alamarBlue viability of expanded OPCs, compound at 10 µM, sheet All Tox data
[5] = Rattus norvegicus, 2 uM test compound, relative to quetiapine, read-out: OL differentiation, 2 uM (% Quet)
[6] = Rattus norvegicus, 10 uM test compound, relative to quetiapine, read-out: OL differentiation, 10 uM (% Quet)
[7] = alamarBlue viability of expanded OPCs, compound at 0.1 µM, relative to DMSO control
[8] = alamarBlue viability of expanded OPCs, compound at 1 µM, relative to DMSO control
[9] = alamarBlue viability of expanded OPCs, compound at 10 µM, relative to DMSO control
[10] = Rattus norvegicus, test compound at 2 uM, NCC library screen, relative to quetiapine, read-out: 2 uM (% Quet)
[11] = Rattus norvegicus, test compound at 10 uM, NCC library screen, relative to quetiapine, read-out: 10 uM (% Quet)
[12] = Rattus norvegicus, 0.4 uM test compound, relative to quetiapine, read-out: OL differentiation, 0.4 uM (% Quet)
[13] = read-out: 0.1 µM (% DMSO), alamarBlue viability, NCC library compound at 0.1 µM, sheet "All Tox data"
[14] = read-out: 1 µM (% DMSO), alamarBlue viability, NCC library compound at 1 µM, sheet "All Tox data"
[15] = read-out: 10 µM (% DMSO), alamarBlue viability, NCC library compound at 10 µM, sheet "All Tox data"
[16] = Rattus norvegicus, test compound at 2 uM, MBP expression relative to quetiapine, NCC library screen, read-out: 2 uM (% Quet)
[17] = Rattus norvegicus, test compound at 10 uM, MBP expression relative to quetiapine, NCC library screen, read-out: 10 uM (% Quet)

C[C@H]1[C@H](OC(=O)CCC(=O)O)O[C@@H]2O[C@@]3(C)CC[C@H]4[C@H](C)CC[C@@H]1[C@@]24OO3 [Artesunate]
viability at 0.1 µM (expanded OPCs; [2]): 93.2%
viability at 1 µM (expanded OPCs; [3]): 101%
viability at 10 µM (expanded OPCs; [4]): 74%
activation at 2 µM [1, 5]: -39.6%
activation at 10 µM [1, 6]: -122%

CC(C)NCC(O)COc1ccc(CC(N)=O)cc1 (stereo not drawn) [Atenolol]
0.1 µM (% DMSO) (expanded OPCs; [7]): 90.5 % DMSO
1 µM (% DMSO) (expanded OPCs; [8]): 105.2 % DMSO
10 µM (% DMSO) (expanded OPCs; [9]): 146.2 % DMSO
activation at 2 µM [1, 10]: 31.5%
activation at 10 µM [1, 11]: 86.2%

CNCC[C@@H](Oc1ccccc1C)c1ccccc1 [Atomoxetine]
viability at 0.1 µM (expanded OPCs; [2]): 87.4%
viability at 1 µM (expanded OPCs; [3]): 74.9%
viability at 10 µM (expanded OPCs; [4]): 33.8%
activation at 0.4 µM [1, 12]: -17.2%
activation at 2 µM [1, 5]: -20.9%

COc1ccc(CC2c3cc(OC)c(OC)cc3CC[N+]2(C)CCC(=O)OCCCCCOC(=O)CC[N+]2(C)CCc3cc(OC)c(OC)cc3C2Cc2ccc(OC)c(OC)c2)cc1OC (stereo not drawn) [Atracurium]
viability at 0.1 µM (expanded OPCs; [13]): 84.6%
viability at 1 µM (expanded OPCs; [14]): 75.3%
viability at 10 µM (expanded OPCs; [15]): 56.2%
activation at 0.4 µM ([1]; Rattus norvegicus, test compound at 0.4 uM, NCC library screen, relative to quetiapine, read-out: 0.4 uM (% Quet)): 9.5%
activation at 2 µM [1, 10]: -83%

Nc1ncn([C@@H]2O[C@H](CO)[C@@H](O)[C@H]2O)c(=O)n1 [Azacitidine]
0.1 µM (% DMSO) (expanded OPCs; [7]): 92.1 % DMSO
1 µM (% DMSO) (expanded OPCs; [8]): 66.4 % DMSO
10 µM (% DMSO) (expanded OPCs; [9]): 57.5 % DMSO
activation at 2 µM [1, 16]: -59.1%
activation at 10 µM [1, 17]: -131%

CN1C(=O)COc2c(C(=O)NC3CN4CCC3CC4)cc(Cl)cc21 (stereo not drawn) [Azasetron]
viability at 0.1 µM (expanded OPCs; [13]): 94.2%
viability at 1 µM (expanded OPCs; [14]): 80.9%
viability at 10 µM (expanded OPCs; [15]): 76.8%
activation at 2 µM [1, 5]: -8.9%
activation at 10 µM [1, 6]: -16.8%

Cn1cnc([N+](=O)[O-])c1Sc1ncnc2nc[nH]c12 [Azathioprine]
0.1 µM (% DMSO) (expanded OPCs; [7]): 90.4 % DMSO
1 µM (% DMSO) (expanded OPCs; [8]): 91.6 % DMSO
10 µM (% DMSO) (expanded OPCs; [9]): 63.6 % DMSO
activation at 2 µM [1, 16]: -21.2%
activation at 10 µM [1, 17]: -94.3%

O=c1cnn([C@@H]2O[C@H](CO)[C@@H](O)[C@H]2O)c(=O)[nH]1 [Azauridine]
0.1 µM (% DMSO) (expanded OPCs; alamarBlue viability, NCC library compound at 0.1 µM, sheet "All Tox data"): 94.5 % DMSO
1 µM (% DMSO) (expanded OPCs; alamarBlue viability, NCC library compound at 1 µM, sheet "All Tox data"): 93.6 % DMSO
10 µM (% DMSO) (expanded OPCs; alamarBlue viability, NCC library compound at 10 µM, sheet "All Tox data"): 80.3 % DMSO
2 uM (% Quet) ([1]; test compound at 2 uM, NCC library screen, relative to quetiapine): -8.7 % Quet
10 uM (% Quet) ([1]; test compound at 10 uM, NCC library screen, relative to quetiapine): -6.4 % Quet

CN1CCCC(n2nc(Cc3ccc(Cl)cc3)c3ccccc3c2=O)CC1 (stereo not drawn) [Azelastine]
viability at 0.1 µM (expanded OPCs; [2]): 90.1%
viability at 1 µM (expanded OPCs; [3]): 51.5%
viability at 10 µM (expanded OPCs; [4]): 12%
activation at 0.4 µM [1, 12]: 1%
activation at 2 µM [1, 5]: -19%

CC[C@H]1OC(=O)[C@H](C)[C@@H](O[C@H]2C[C@@](C)(OC)[C@@H](O)[C@H](C)O2)[C@H](C)[C@@H](O[C@@H]2O[C@H](C)C[C@H](N(C)C)[C@H]2O)[C@](C)(O)C[C@@H](C)CN(C)[C@H](C)[C@@H](O)[C@]1(C)O [Azithromycin]
0.1 µM (% DMSO) (expanded OPCs; [7]): 76.1 % DMSO
1 µM (% DMSO) (expanded OPCs; [8]): 40.6 % DMSO
10 µM (% DMSO) (expanded OPCs; [9]): 25.1 % DMSO
activation at 0.08 µM ([1]; Rattus norvegicus, test compound at 0.08 uM, MBP expression relative to quetiapine, NCC library screen, read-out: 0.08 uM (% Quet)): 8.2%
activation at 0.4 µM ([1]; Rattus norvegicus, test compound at 0.4 uM, MBP expression relative to quetiapine, NCC library screen, read-out: 0.4 uM (% Quet)): -7.2%

CC1(C)O[C@@H]2C[C@H]3[C@@H]4CCC5=CC(=O)C=C[C@]5(C)[C@@]4(F)[C@@H](O)C[C@]3(C)[C@]2(C(=O)CO)O1 [Azmacort]
0.1 µM (% DMSO) (expanded OPCs; [7]): 95.7 % DMSO
1 µM (% DMSO) (expanded OPCs; [8]): 95.0 % DMSO
10 µM (% DMSO) (expanded OPCs; [9]): 69.5 % DMSO
activation at 2 µM [1, 16]: 24.2%
activation at 10 µM [1, 17]: -114%

O=C(O)CCNC(=O)c1ccc(/N=N/c2ccc(O)c(C(=O)O)c2)cc1 [Balsalazide]
viability at 0.1 µM (expanded OPCs; [13]): 88.1%
viability at 1 µM (expanded OPCs; [14]): 92%
viability at 10 µM (expanded OPCs; [15]): 85.1%
activation at 2 µM [1, 10]: 10.7%
activation at 10 µM [1, 11]: 19.1%
